Test results taken from BindingDB's records for doi:10.1021/jm701348d (Inspire Pharmaceuticals, 2008).
Values joined by “and” are separate entries in the source; they are usually repeats but may differ in a detail not shown here. Identical values can stand only once.

Experiment: Antagonist activity at P2Y12 receptor assessed as inhibition of ADP-induced human platelet aggregation by washed platelet assay

SMILES: O=C(Nc1ncnc2c1ncn2[C@@H]1O[C@H](COP(=O)(O)O)[C@H]2OC(Cc3ccccc3)O[C@H]21)NC1CCCC1 (some centres not stated)
- IC50: 0.0362 µM

SMILES: Nc1ncnc2c1ncn2[C@@H]1O[C@H](COP(=O)(O)OP(=O)(O)OP(=O)(O)OP(=O)(O)OC[C@@H]2O[C@H](n3cnc4c(N)ncnc43)[C@H]3OC(Cc4ccccc4)O[C@H]32)[C@H]2OC(Cc3ccccc3)O[C@H]21 (some centres not stated)
- IC50: 11.7 µM

SMILES: CCCCCCNC(=O)Nc1ncnc2c1ncn2[C@@H]1O[C@H](COP(=O)(O)O)[C@H]2OC(Cc3ccccc3)O[C@H]21 (some centres not stated)
- IC50: 0.053 µM

SMILES: Nc1ncnc2c1ncn2[C@@H]1O[C@H](COP(=O)(O)O)[C@H]2OC(C#Cc3ccccc3)O[C@H]21 (some centres not stated)
- IC50: 57.1 µM

SMILES: O=c1ccn([C@@H]2O[C@H](COP(=O)(O)OP(=O)(O)OP(=O)(O)OP(=O)(O)OC[C@@H]3O[C@H](n4ccc(=O)[nH]c4=O)[C@@H](O)[C@H]3O)[C@@H]3OC(c4ccccc4)O[C@H]32)c(=O)[nH]1 (some centres not stated)
- IC50: 16.7 µM

SMILES: O=C(Nc1ccccc1)Nc1ncnc2c1ncn2[C@@H]1O[C@H](COP(=O)(O)O)[C@H]2OC(Cc3ccccc3)O[C@H]21 (some centres not stated)
- IC50: 0.16 µM

SMILES: Nc1ncnc2c1ncn2[C@@H]1O[C@H](COP(=O)(O)OP(=O)(O)O)[C@H]2O[C@@H](Cc3ccccc3)O[C@H]21
- IC50: 23 µM

SMILES: Nc1ncnc2c1ncn2[C@@H]1O[C@H](COP(=O)(O)OP(=O)(O)OP(=O)(O)OP(=O)(O)OC[C@@H]2O[C@H](n3cnc4c(N)ncnc43)[C@@H](O)[C@H]2O)[C@H]2OC(Cc3ccccc3)O[C@H]21 (some centres not stated)
- IC50: 6.54 µM

SMILES: O=c1ccn([C@@H]2O[C@H](COP(=O)(O)OP(=O)(O)OP(=O)(O)OP(=O)(O)OC[C@@H]3O[C@H](n4ccc(=O)[nH]c4=O)[C@@H](O)[C@H]3O)[C@@H]3OC(Cc4ccccc4)O[C@H]32)c(=O)[nH]1 (some centres not stated)
- IC50: 27.1 µM

SMILES: O=c1ccn([C@@H]2O[C@H](COP(=O)(O)OP(=O)(O)OP(=O)(O)OP(=O)(O)OC[C@@H]3O[C@H](n4ccc(=O)[nH]c4=O)[C@H]4OC(/C=C/c5ccccc5)O[C@H]43)[C@H]3OC(/C=C/c4ccccc4)O[C@H]32)c(=O)[nH]1 (some centres not stated)
- IC50: 3.3 µM

SMILES: CCNC(=O)Nc1ncnc2c1ncn2[C@@H]1O[C@H](COP(=O)(O)O)[C@H]2OC(Cc3ccccc3)O[C@H]21 (some centres not stated)
- IC50: 0.041 µM

SMILES: CCCCCCCC1O[C@@H]2[C@H](O1)[C@@H](COP(=O)(O)OP(=O)(O)OP(=O)(O)OP(=O)(O)OC[C@@H]1O[C@H](n3ccc(=O)[nH]c3=O)[C@H]3OC(CCCCCCC)O[C@H]31)O[C@H]2n1ccc(=O)[nH]c1=O (some centres not stated)
- IC50: 10.7 µM

SMILES: O=C(Nc1ccc(F)cc1)Nc1ccn([C@@H]2O[C@H](COP(=O)(O)O)[C@H]3O[C@@H](Cc4ccccc4)O[C@H]32)c(=O)n1
- IC50: 11.2 µM

SMILES: O=c1ccn([C@@H]2O[C@H](COP(=O)(O)OP(=O)(O)OP(=O)(O)OC[C@@H]3O[C@H](n4ccc(=O)[nH]c4=O)[C@H]4OC(Cc5ccccc5)O[C@H]43)[C@H]3OC(Cc4ccccc4)O[C@H]32)c(=O)[nH]1 (some centres not stated)
- IC50: 4.63 µM

SMILES: O=C(Nc1ccccc1)Nc1ncnc2c1ncn2[C@@H]1O[C@H](COP(=O)(O)O)[C@H]2OC(/C=C/c3ccccc3)O[C@H]21 (some centres not stated)
- IC50: 0.21 µM

SMILES: CNc1ccccc1C(=O)O[C@H]1[C@@H](O)[C@H](n2ccc(=O)[nH]c2=O)O[C@@H]1COP(=O)(O)OP(=O)(O)OP(=O)(O)OP(=O)(O)OC[C@@H]1O[C@H](n2ccc(=O)[nH]c2=O)[C@@H](OC(=O)c2ccccc2NC)[C@H]1O
- IC50: 7.59 µM

SMILES: O=C(Nc1ccccc1)Nc1ncnc2c1ncn2[C@@H]1O[C@H](COP(=O)(O)OP(=O)(O)O)[C@@H](O)[C@H]1O
- IC50: 10.8 µM

SMILES: CCCCCCCC1O[C@@H]2[C@H](O1)[C@@H](COP(=O)(O)OP(=O)(O)OP(=O)(O)OP(=O)(O)OC[C@@H]1O[C@H](n3ccc(=O)[nH]c3=O)[C@@H](O)[C@H]1O)O[C@H]2n1ccc(=O)[nH]c1=O (some centres not stated)
- IC50: 16.9 µM

SMILES: O=C(Nc1ccccc1)Nc1ncnc2c1ncn2[C@@H]1O[C@H](COP(=O)(O)O)[C@H]2OC(C#Cc3ccccc3)O[C@H]21 (some centres not stated)
- IC50: 0.288 µM

SMILES: O=c1ccn([C@@H]2O[C@H](COP(=O)(O)OP(=O)(O)OP(=O)(O)OP(=O)(O)OC[C@@H]3O[C@H](n4ccc(=O)[nH]c4=O)[C@H]4OC(Cc5ccccc5)O[C@H]43)[C@H]3OC(Cc4ccccc4)O[C@H]32)c(=O)[nH]1 (some centres not stated)
- IC50: 1.82 µM

SMILES: O=C(Nc1ccccc1)Nc1ncnc2c1ncn2[C@@H]1O[C@H](COP(=O)(O)O)[C@@H](O)[C@H]1O
- IC50: 3.11 µM

SMILES: O=C(Nc1ccccc1)Nc1ncnc2c1ncn2[C@@H]1O[C@H](COP(=O)(O)OP(=O)(O)O)[C@H]2O[C@@H](Cc3ccccc3)O[C@H]21
- IC50: 0.052 µM

SMILES: O=C(Nc1ccc(F)cc1)Nc1ccn([C@@H]2O[C@H](COP(=O)(O)OP(=O)(O)OP(=O)(O)OP(=O)(O)OC[C@@H]3O[C@H](n4ccc(=O)[nH]c4=O)[C@H]4O[C@@H](Cc5ccccc5)O[C@H]43)[C@@H](O)[C@H]2O)c(=O)n1
- IC50: 23.9 µM

SMILES: O=c1ccn([C@@H]2O[C@H](COP(=O)(O)OP(=O)(O)OP(=O)(O)OP(=O)(O)OC[C@@H]3O[C@H](n4ccc(=O)[nH]c4=O)[C@H]4OC(c5ccccc5)O[C@H]43)[C@H]3OC(c4ccccc4)O[C@H]32)c(=O)[nH]1 (some centres not stated)
- IC50: 8.29 µM

SMILES: CCNC(=O)Nc1ncnc2c1ncn2[C@@H]1O[C@H](COP(=O)(O)O)[C@H]2OC(c3ccccc3)O[C@H]21 (some centres not stated)
- IC50: 0.013 µM

SMILES: O=C(Nc1ccccc1)Nc1ncnc2c1ncn2[C@@H]1O[C@H](COP(=O)(O)OP(=O)(O)OP(=O)(O)OP(=O)(O)OC[C@@H]2O[C@H](n3cnc4c(NC(=O)Nc5ccccc5)ncnc43)[C@H]3O[C@@H](Cc4ccccc4)O[C@H]32)[C@H]2O[C@@H](Cc3ccccc3)O[C@H]21
- IC50: 0.522 µM

SMILES: O=c1ccn([C@@H]2O[C@H](COP(=O)(O)OP(=O)(O)OP(=O)(O)OC[C@@H]3O[C@H](n4ccc(=O)[nH]c4=O)[C@@H](O)[C@H]3O)[C@H]3OC(Cc4ccccc4)O[C@H]32)c(=O)[nH]1 (some centres not stated)
- IC50: 34.7 µM

SMILES: O=C(Nc1ccc(F)cc1)Nc1ccn([C@@H]2O[C@H](COP(=O)(O)OP(=O)(O)OP(=O)(O)OP(=O)(O)OC[C@@H]3O[C@H](n4ccc(=O)[nH]c4=O)[C@@H](O)[C@H]3O)[C@H]3O[C@@H](Cc4ccccc4)O[C@H]32)c(=O)n1
- IC50: 12.9 µM

SMILES: CCCCCCNC(=O)Nc1ncnc2c1ncn2[C@@H]1O[C@H](COP(=O)(O)O)[C@H]2OC(C#Cc3ccccc3)O[C@H]21 (some centres not stated)
- IC50: 0.211 µM

SMILES: O=c1ccn([C@@H]2O[C@H](COP(=O)(O)OP(=O)(O)OP(=O)(O)OP(=O)(O)OC[C@@H]3O[C@H](n4ccc(=O)[nH]c4=O)[C@@H](O)[C@H]3O)[C@H]3OC(/C=C/c4ccccc4)O[C@H]32)c(=O)[nH]1 (some centres not stated)
- IC50: 8.68 µM and 8.8 µM

SMILES: Nc1ncnc2c1ncn2[C@@H]1O[C@H](COP(=O)(O)O)[C@H]2OC(/C=C/c3ccccc3)O[C@H]21 (some centres not stated)
- IC50: 45.1 µM

SMILES: CCCCCCNC(=O)Nc1ncnc2c1ncn2[C@@H]1O[C@H](COP(=O)(O)O)[C@H]2OC(/C=C/c3ccccc3)O[C@H]21 (some centres not stated)
- IC50: 0.237 µM
